Test system: human TH17 cells
Test: Inhibition of IL-17 release from human TH17 cells
Format: cell-based
Settings: isolated human TH17 cells, 4 days culture, IL-17A by HTRF; for IC50: Homo sapiens, 96 h, read-out: pIC50 IL-17 release (converted)
From the text: Inhibition of IL-17 Release from Human TH17 Cells (IL-17 Release)
This test is designed to screen compounds for their inhibitory effect on the release of IL-17 from isolated and cultured human TH17 cells.
Peripheral blood mononuclear cells (PBMC) were isolated from heparin treated human whole blood fromhealthy donors by density gradient centrifugation. TH17 cells (CD4+CXCR3-CCR6+) were enriched using a human TH17 Cell Enrichment Kit (Stemcell Technologies) according to the manufacturer's protocol. […] On day 4 supernatants were collected and IL-17A was measured using a Human IL-17 HTRF Assay kit (Cisbio Bioassays) according to the manufacturer's protocol. […] Results

CCS(=O)(=O)c1ccc2c(c1)CN(C(=O)CC1(N(C)C)CC1)C2C(=O)Nc1ccc(C(O)(C(F)(F)F)C(F)(F)F)cc1 (stereo not drawn) [Example 115, 2-{[1-(Dimethylamino)cyclopropyl]acetyl}-5-(ethylsulfonyl)-N-[4-(1,1,1,3,3,3-hexafluoro-2-hydroxypropan-2-yl)phenyl]-2,3-dihydro-1H-isoindole-1-carboxamide]
IC50: 63.1 nM

O=C(Nc1ccc(C(O)(C(F)(F)F)C(F)(F)F)cc1)C1NCc2cc(S(=O)(=O)CC3CC3)ccc21 (stereo not drawn) [Example 200, 5-[(Cyclopropylmethyl)sulfonyl]-N-[4-(1,1,1,3,3,3-hexafluoro-2-hydroxypropan-2-yl)phenyl]-2,3-dihydro-1H-isoindole-1-carboxamide]
IC50: 31.6 nM

COC1(CC(=O)N2Cc3cc(S(=O)(=O)CC4CC4)ccc3C2C(=O)Nc2ccc(C(O)(C(F)(F)F)C(F)(F)F)cc2)CC1 (stereo not drawn) [Example 205, 5-[(Cyclopropylmethyl)sulfonyl]-N-[4-(1,1,1,3,3,3-hexafluoro-2-hydroxypropan-2-yl)phenyl]-2-[(1-methoxycyclopropyl)acetyl]-2,3-dihydro-1H-isoindole-1-carboxamide]
IC50: 15.8 nM

N#CC1(C(=O)N2Cc3cc(S(=O)(=O)CC4CC4)ccc3C2C(=O)Nc2ccc(C(O)(C(F)(F)F)C(F)(F)F)cc2)CC1 (stereo not drawn) [Example 209, 2-[(1-Cyanocyclopropyl)carbonyl]-5-[(cyclopropylmethyl)sulfonyl]-N-[4-(1,1,1,3,3,3-hexafluoro-2-hydroxypropan-2-yl)phenyl]-2,3-dihydro-1H-isoindole-1-carboxamide]
IC50: 25.1 nM

O=C(Nc1ccc(C(O)(C(F)(F)F)C(F)(F)F)cc1)C1c2ccc(S(=O)(=O)C3CC3)cc2CN1C(=O)[C@H]1CCCO1 (stereo partly drawn) [Example 609, 5-(Cyclopropylsulfonyl)-N-[4-(1,1,1,3,3,3-hexafluoro-2-hydroxypropan-2-yl)phenyl]-2-[(2R)-tetrahydrofuran-2-ylcarbonyl]-2,3-dihydro-1H-isoindole-1-carboxamide]
IC50: 50.1 nM

CS(=O)(=O)c1ccc2c(c1)CN(C(=O)CC1(O)CC1)C2C(=O)Nc1ccc(C(O)(C(F)(F)F)C(F)(F)F)cc1 (stereo not drawn) [Example 412, N-[4-(1,1,1,3,3,3-Hexafluoro-2-hydroxypropan-2-yl)phenyl]-2-[(1-hydroxycyclopropyl)acetyl]-5-(methylsulfonyl)-2,3-dihydro-1H-isoindole-1-carboxamide]
IC50: 25.1 nM

CC[C@H](O)C(=O)N1Cc2cc(S(=O)(=O)NC)ccc2C1C(=O)Nc1ccc(C(O)(C(F)(F)F)C(F)(F)F)cc1 (single isomer, unassigned) [Example 307, isomer 1, (R) or (S)N-[4-(1,1,1,3,3,3-Hexafluoro-2-hydroxypropan-2-yl)phenyl]-2-[(2S)-2-hydroxybutanoyl]-5-(methylsulfamoyl)-2,3-dihydro-1H-isoindole-1-carboxamide]
pIC50 IL-17 release (listed as 307, isomer 1): 7.5

O=C(Nc1ccc(C(O)(C(F)(F)F)C(F)(F)F)cc1)C1c2ccc(S(=O)(=O)CC3CC3)cc2CN1C(=O)CC1(O)CC1 (stereo not drawn) [Example 206, 5-[(Cyclopropylmethyl)sulfonyl]-N-[4-(1,1,1,3,3,3-hexafluoro-2-hydroxypropan-2-yl)phenyl]-2-[(1-hydroxycyclopropyl)acetyl]-2,3-dihydro-1H-isoindole-1-carboxamide]
IC50: 39.8 nM

CS(=O)(=O)c1ccc2c(c1)CN(C(=O)CC1(C#N)CC1)C2C(=O)Nc1ccc(C(O)(C(F)(F)F)C(F)(F)F)cc1 (stereo not drawn) [Example 427, 2-[(1-Cyanocyclopropyl)acetyl]-N-[4-(1,1,1,3,3,3-hexafluoro-2-hydroxypropan-2-yl)phenyl]-5-(methylsulfonyl)-2,3-dihydro-1H-isoindole-1-carboxamide]
IC50: 100 nM

O=C(Nc1ccc(C(O)(C(F)(F)F)C(F)(F)F)cc1)C1c2ccc(S(=O)(=O)C3CC3)cc2CN1C(=O)[C@@H]1CCCO1 (stereo partly drawn) [Example 608, 5-(Cyclopropylsulfonyl)-N-[4-(1,1,1,3,3,3-hexafluoro-2-hydroxypropan-2-yl)phenyl]-2-[(2S)-tetrahydrofuran-2-ylcarbonyl]-2,3-dihydro-1H-isoindole-1-carboxamide]
IC50: 39.8 nM

CS(=O)(=O)c1ccc2c(c1)CN(C(=O)Cc1ccccc1)C2C(=O)Nc1ccc(C(O)(C(F)(F)F)C(F)(F)F)cc1 (stereo not drawn) [Example 402, N-[4-(1,1,1,3,3,3-Hexafluoro-2-hydroxypropan-2-yl)phenyl]-5-(methylsulfonyl)-2-(phenylacetyl)-2,3-dihydro-1H-isoindole-1-carboxamide]
IC50: 12.6 nM

COC1(C(=O)N2Cc3cc(S(C)(=O)=O)ccc3C2C(=O)Nc2ccc(C(O)(C(F)(F)F)C(F)(F)F)cc2F)CC1 (stereo not drawn) [Example 441, N-[2-Fluoro-4-(1,1,1,3,3,3-hexafluoro-2-hydroxypropan-2-yl)phenyl]-2-[(1-methoxycyclopropyl)carbonyl]-5-(methylsulfonyl)-2,3-dihydro-1H-isoindole-1-carboxamide]
IC50: 25.1 nM

O=C(Nc1ccc(C(O)(C(F)(F)F)C(F)(F)F)cc1)C1NCc2cc(S(=O)(=O)CC3(O)CC3)ccc21 (stereo not drawn) [Example 1100, N-[4-(1,1,1,3,3,3-Hexafluoro-2-hydroxypropan-2-yl)phenyl]-5-{[(1-hydroxycyclopropyl)methyl]sulfonyl}-2,3-dihydro-1H-isoindole-1-carboxamide]
IC50: 200 nM

CS(=O)(=O)c1ccc2c(c1)CN(C(=O)C1(F)CC1)C2C(=O)Nc1ccc(C(O)(C(F)(F)F)C(F)(F)F)cc1 (stereo not drawn) [Example 446, 2-[(1-Fluorocyclopropyl)carbonyl]-N-[4-(1,1,1,3,3,3-hexafluoro-2-hydroxypropan-2-yl)phenyl]-5-(methylsulfonyl)-2,3-dihydro-1H-isoindole-1-carboxamide]
IC50: 31.6 nM

CC(C)CC(=O)N1Cc2cc(S(C)(=O)=O)ccc2C1C(=O)Nc1ccc(C(O)(C(F)(F)F)C(F)(F)F)cc1 (stereo not drawn) [Example 410, N-[4-(1,1,1,3,3,3-Hexafluoro-2-hydroxypropan-2-yl)phenyl]-2-(3-methylbutanoyl)-5-(methylsulfonyl)-2,3-dihydro-1H-isoindole-1-carboxamide]
IC50: 20 nM

CS(=O)(=O)c1ccc2c(c1)CN(C(=O)CC1CC1)C2C(=O)Nc1ccc(C(O)(C(F)(F)F)C(F)(F)F)cc1 (stereo not drawn) [Example 411, 2-(Cyclopropylacetyl)-N-[4-(1,1,1,3,3,3-hexafluoro-2-hydroxypropan-2-yl)phenyl]-5-(methylsulfonyl)-2,3-dihydro-1H-isoindole-1-carboxamide]
IC50: 25.1 nM

CC(=O)N1Cc2cc(S(=O)(=O)CC(C)C)ccc2C1C(=O)Nc1ccc(C(O)(C(F)(F)F)C(F)(F)F)cc1 (stereo not drawn) [Example 1001, 2-Acetyl-N-[4-(1,1,1,3,3,3-hexafluoro-2-hydroxypropan-2-yl)phenyl]-5-[(2-methylpropyl)sulfonyl]-2,3-dihydro-1H-isoindole-1-carboxamide]
IC50: 100 nM

CS(=O)(=O)c1ccc2c(c1)CN(C(=O)C1(C#N)CC1)C2C(=O)Nc1ccc(C(O)(C(F)(F)F)C(F)(F)F)cc1F (stereo not drawn) [Example 436, 2-[(1-Cyanocyclopropyl)carbonyl]-N-[2-fluoro-4-(1,1,1,3,3,3-hexafluoro-2-hydroxypropan-2-yl)phenyl]-5-(methylsulfonyl)-2,3-dihydro-1H-isoindole-1-carboxamide]
IC50: 15.8 nM
